Publication PMC11189555, “Aryl amino acetamides prevent Plasmodium falciparum ring development via targeting the lipid-transfer protein PfSTART1” (Nature Communications, 2024)

Test system: PopD C6 M-833 resistant clone (PfSTART1 N309K)
Experiment: Growth inhibition assay (72 h, LDH activity)
Type: cell-based, Plasmodium falciparum
Method: The drug was then removed, and parasites were allowed to recover. Another cycle of drug treatment (3 μM M-833) was then resumed. The resistant lines were cloned out by limiting dilution (diluting the culture into a 96-well plate to achieve an average of ~0.3 parasites per well), prior to growth inhibition assays and genomic DNA (gDNA) extraction (DNeasy Blood and Tissue kit (Qiagen)[18].
Parasite growth assays with inhibitory compounds were performed as per[11] and are fully described in the Supplementary Information.
Molecular biology and transfection of P. falciparum: CRISPR method.
The full 5’ homology region of pfstart1 (either WT, N309K or N330K) was amplified from pPfSTART1-HA-2A-Neo-glmS with the same 5’ BglII primer and a new 3’ primer that replaced with PstI with SpeI and introduced a stop codon. The PCR product was then digested with BglII and SpeI and inserted into similarly digested p1.2 parasite vector2. The p1.2 vector had previously been inserted with a homology region amplified from the 3’ end of the pfstart1 gene (3’HB) to form a second homology block for double recombination. The primers used to amplify 3’HB are listed primers listed in […]
60 μg of p1.2-PfSTART1(WT/N309K/N330K) plasmid was linearised with KasI, precipitated in 3 M sodium acetate and ethanol (70% final concentration) overnight at -20°C. The DNA pellet was washed in cold 70% ethanol and resuspended in cytomix 3.
50 μ M of crRNA ( Table S 2) and 50 μM of tracRNA (Integrated DNA Technologies) were allowed to form a duplex (5 min at 95°C), and Cas9 enzyme (Integrated DNA Technologies) was added, and incubated for 20 min at room temperature 4. This crRNA -tracRNA -Cas9 mix was added to each DNA preparation and transfected to 3D7 ring parasites using the Bio -Rad Gene Pulser at 310 V and 950 μF.
Parasites containing the transfected DNA were selected using 2.5 nM WR99210 (Jacobus). Parasites lines were cloned using limiting dilution. Correct integration was tested by PCR (using primer START_5’UTR.F and START_Int.R1 , Table S 2), and sequencing was done using the primers START_3F and START_Int.R2 (Table S 2).
Growth inhibition assays. Synchronised ring-stage parasites (0.3-0.6% parasitemia, 2% haematocrit) were grown for 72 h in a serial-dilution of the compound under […]
and compound 4. Note that M-833 was first purchased from MolPort (MolPort -002-267-916) then made in-house at WEHI: the differences observed in EC50s across experiments are attributed to the different batches of M -833. For some experiments, 0, 0.25 or 2.5 mM of glucosamine (GlcN) was also added. Experiments were set up in technical duplicates or triplicates. Following a freeze -thaw cycle, lactate dehydrogenase (LDH) activity was assessed as an indicator of parasite growt h 5. 30 μL of parasite culture was incubated for 30 min in the dark with 75 μL Malstat mixture (0.1 M Tris pH 9.0, 20 g/L lactic acid, pH 7.5, 0.2% Triton-X100, 0.5 g/L acetylpyridine adenine dinucleotide (APAD, Sigma), 200 μg/mL nitroblue tetrazolium (NBT; Sigma), 1 μg/mL phenozine ethosulfate (PES; Sigma)). Absorbance was then measured at 650 nm, transformed using the formula below, plotted against the logarithm of the concentrations, and a non-linear regression (log(inhibitor) vs. response, variable slope) was calculated using GraphPad Prism to assess the half-inhibitory […]
Growth inhibition % = (1 − average(sample)− average(uRBC)) ∗ 100 […]
The DMSO samples were also used to assess growth of parasite in the presence of 0.25 and 2.5 mM GlcN (normalised by DMSO in 0 mM GlcN).
Egress, invasion & recovery assay. To measure egress, invasion and follow up recovery in the presence of different compounds, we adapted the method developed in6, using Hyp1-Nluc parasites7. These parasites episomally express the exported PEXEL protein Hyp1 (PF3D7_0113300) tagged with a NanoLuc luciferase (NLuc) and were selected with 2.5 nM WR99210 (Jacobus). Highly synchronised schizonts were […]

`Cc1cc(Cl)c(S(=O)(=O)N2CCCC2)cc1OCC(=O)NC1CCCCC1` [M-833] was tested, and the “Normalised to DMSO” value (M-833 0.0390625 uM, Pop D-C6 replicate 1) was 106.597, the “Normalised to DMSO” value (M-833 0.0390625 uM, Pop D-C6 replicate 3) was 109.19 and the “Normalised to DMSO” value (M-833 0.078125 uM, Pop D-C6 replicate 1) was 104.398. The “Normalised to DMSO” value (M-833 0.078125 uM, Pop D-C6 replicate 3) was 106.818, the “Normalised to DMSO” value (M-833 0.15625 uM, Pop D-C6 replicate 1) was 106.528 and the “Normalised to DMSO” value (M-833 0.15625 uM, Pop D-C6 replicate 3) was 112.747. For the same compound, the “Normalised to DMSO” value (M-833 0.3125 uM, Pop D-C6 replicate 1) was 101.389, the “Normalised to DMSO” value (M-833 0.3125 uM, Pop D-C6 replicate 3) was 96.5909 and the “Normalised to DMSO” value (M-833 0.625 uM, Pop D-C6 replicate 1) was 99.6991. For the same compound, the “Normalised to DMSO” value (M-833 0.625 uM, Pop D-C6 replicate 3) was 97.6285, the “Normalised to DMSO” value (M-833 1.25 uM, Pop D-C6 replicate 1) was 88.1713 and the “Normalised to DMSO” value (M-833 1.25 uM, Pop D-C6 replicate 3) was 89.9209. For the same compound, the “Normalised to DMSO” value (M-833 2.5 uM, Pop D-C6 replicate 1) was 68.7963, the “Normalised to DMSO” value (M-833 2.5 uM, Pop D-C6 replicate 3) was 69.4664 and the “Normalised to DMSO” value (M-833 5 uM, Pop D-C6 replicate 1) was 41.5972. For the same compound, the “Normalised to DMSO” value (M-833 5 uM, Pop D-C6 replicate 3) was 40.2668, the “Normalised to DMSO” value (M-833 10 uM, Pop D-C6 replicate 1) was 22.7778 and the “Normalised to DMSO” value (M-833 10 uM, Pop D-C6 replicate 3) was 32.2628. It also gave an inhibition at 0.0390625 µM (Plasmodium falciparum, M-833 0.0390625 uM, Pop D-C6 replicate 1) of -6.6%, an inhibition at 0.0390625 µM (Plasmodium falciparum, M-833 0.0390625 uM, Pop D-C6 replicate 3) of -9.19% and an inhibition at 0.078125 µM (Plasmodium falciparum, M-833 0.078125 uM, Pop D-C6 replicate 1) of -4.4%. The inhibition at 0.078125 µM (Plasmodium falciparum, M-833 0.078125 uM, Pop D-C6 replicate 3) was -6.82%, the inhibition at 0.15625 µM (Plasmodium falciparum, M-833 0.15625 uM, Pop D-C6 replicate 1) was -6.53% and the inhibition at 0.15625 µM (Plasmodium falciparum, M-833 0.15625 uM, Pop D-C6 replicate 3) was -12.7%. It also gave an inhibition at 0.3125 µM (Plasmodium falciparum, M-833 0.3125 uM, Pop D-C6 replicate 1) of -1.39%, an inhibition at 0.3125 µM (Plasmodium falciparum, M-833 0.3125 uM, Pop D-C6 replicate 3) of 3.41% and an inhibition at 0.625 µM (Plasmodium falciparum, M-833 0.625 uM, Pop D-C6 replicate 1) of 0.301%. For the same compound, the inhibition at 0.625 µM (Plasmodium falciparum, M-833 0.625 uM, Pop D-C6 replicate 3) was 2.37%, the inhibition at 1.25 µM (Plasmodium falciparum, M-833 1.25 uM, Pop D-C6 replicate 1) was 11.8% and the inhibition at 1.25 µM (Plasmodium falciparum, M-833 1.25 uM, Pop D-C6 replicate 3) was 10.1%. For the same compound, the inhibition at 2.5 µM (Plasmodium falciparum, M-833 2.5 uM, Pop D-C6 replicate 1) was 31.2%, the inhibition at 2.5 µM (Plasmodium falciparum, M-833 2.5 uM, Pop D-C6 replicate 3) was 30.5% and the inhibition at 5 µM (Plasmodium falciparum, M-833 5 uM, Pop D-C6 replicate 1) was 58.4%. The inhibition at 5 µM (Plasmodium falciparum, M-833 5 uM, Pop D-C6 replicate 3) was 59.7%, the inhibition at 10 µM (Plasmodium falciparum, M-833 10 uM, Pop D-C6 replicate 1) was 77.2% and the inhibition at 10 µM (Plasmodium falciparum, M-833 10 uM, Pop D-C6 replicate 3) was 67.7%. The inhibition at 0.0390625 µM (Plasmodium falciparum, Pop D-C6 replicate 1, M-833 0.0390625 uM) was -0.105%, the inhibition at 0.078125 µM (Plasmodium falciparum, Pop D-C6 replicate 1, M-833 0.078125 uM) was -0.157% and the inhibition at 0.15625 µM (Plasmodium falciparum, Pop D-C6 replicate 1, M-833 0.15625 uM) was 1.36%. The inhibition at 0.3125 µM (Plasmodium falciparum, Pop D-C6 replicate 1, M-833 0.3125 uM) was 4.07%, the inhibition at 0.625 µM (Plasmodium falciparum, Pop D-C6 replicate 1, M-833 0.625 uM) was 7.36% and the inhibition at 1.25 µM (Plasmodium falciparum, Pop D-C6 replicate 1, M-833 1.25 uM) was 9.35%. For the same compound, the inhibition at 2.5 µM (Plasmodium falciparum, Pop D-C6 replicate 1, M-833 2.5 uM) was 19.4%, the inhibition at 5 µM (Plasmodium falciparum, Pop D-C6 replicate 1, M-833 5 uM) was 34.9% and the inhibition at 10 µM (Plasmodium falciparum, Pop D-C6 replicate 1, M-833 10 uM) was 62%. For the same compound, the EC50 (Plasmodium falciparum, read-out: EC50 (95% confidence interval)) was 4.19 µM, the “Normalised to DMSO” value (Pop D-C6 replicate 1, M-833 0.0390625 uM) was 100.105 and the “Normalised to DMSO” value (Pop D-C6 replicate 1, M-833 0.078125 uM) was 100.157. For the same compound, the “Normalised to DMSO” value (Pop D-C6 replicate 1, M-833 0.15625 uM) was 98.6386, the “Normalised to DMSO” value (Pop D-C6 replicate 1, M-833 0.3125 uM) was 95.9333 and the “Normalised to DMSO” value (Pop D-C6 replicate 1, M-833 0.625 uM) was 92.6433. For the same compound, the “Normalised to DMSO” value (Pop D-C6 replicate 1, M-833 1.25 uM) was 90.6536, the “Normalised to DMSO” value (Pop D-C6 replicate 1, M-833 2.5 uM) was 80.5829 and the “Normalised to DMSO” value (Pop D-C6 replicate 1, M-833 5 uM) was 65.0842. For the same compound, the “Normalised to DMSO” value (Pop D-C6 replicate 1, M-833 10 uM) was 37.9963.
